For data set [1] the following is noted: in vivo, cited from earlier work.
The subject of the next data set is P. falciparum 3D7. As to the kind of experiment: P. falciparum growth inhibition assay, second round (SYBR Green I, ICEstimator). The format is cell-based, Plasmodium falciparum. Conditions: Plasmodium falciparum, 3D7, 48 h.
The test system of the next data set is CHO-K1 cells. Put plainly: In vitro micronucleus assay, short-term exposure. To be noted: short-term, with S9 mix, positive control 5 μg/mL. As to the method:
All the assays were conducted in duplicate. The CHO-K1 cells, suspended in McCoy's 5A medium, were transferred into Labteck wells at a concentration of 100,000 cells/mL, and incubated for 24 hours at 37° C. in CO2 (5%).
When the test was performed without metabolic activation, the test substances were added into cell cultures at concentrations previously defined.
When the assay was performed in the presence of metabolic activation, S9 mix metabolizing mixture was added to cell cultures at a concentration of 10%. Then the test substances were added to the cell cultures at concentrations previously defined.
After 3 hours of incubation at 37° C. in CO2 (5%), the culture medium was removed, the cells were rinsed with phosphate buffered saline (PBS), and then returned to culture in McCoy's 5A medium containing […] of cytochalasin B. After a 21-hour incubation period at 37° C., cells were rinsed with phosphate buffered saline (PBS), fixed with methanol and stained with 10% Giemsa for 20 minutes.
The analysis of results was performed under a microscope at ×1000 magnification. The antiproliferative activity of test substances was estimated by counting the number of binucleated cells relative to the number of mononucleated cells on a total of 500 cells for each dose (250 cells counted per well). The proliferation index (Cytokinesis Blocked Proliferative Index CBPI) was calculated using the following formula:
The cytostasis index (CI %), i.e. the percentage of cell replication inhibition, was calculated using the following formula: CI %−100−{100×(CBPItest material−1)/(CBPIsolvent control−1)}
The rates of micronuclei were evaluated for the presence of independent nuclear core entities in 1000 binucleated cells per well, which corresponds to 2000 cells examined by test substance dose. Micronuclei were identified as small nuclei well differentiated from cell nucleus, stained in the same manner and having a diameter less than one third of that of the cell nucleus.
Micronuclei rates obtained for different doses of test substances were compared to the negative control by a χ2 test. The assay was considered positive if: • A dose-response relationship was obtained between the rate of micronuclei and the doses tested, • At least one of these doses induced a statistically significant increase (P<0.05) in the number of micronucleated cells as compared to the negative control.

A further data set deals with Plasmodium falciparum W2. Put plainly: Plasmodium falciparum susceptibility assay, first round (SYBR Green I). The data set is classed as cell-based. To be noted: W2, first round, 48-h incubation, strain resistant to CQ, sensitive to MQ, read-out: IC50 (nM) Plasmodium falciparum W2 (converted).
Data set [2] deals with Plasmodium falciparum 3D7. The description is as above. Conditions: 3D7, first round, 48-h incubation, strain susceptible to CQ, decreased susceptibility to MQ, read-out: IC50 (nM) Plasmodium falciparum 3D7 (converted). The data set is classed as cell-based.

Each structure is given as a SMILES string.

The IC50 is the concentration that gives 50% inhibition. In the case of `OC(c1cc(-c2ccc(C(F)(F)F)cc2)nc(C(F)(F)F)c1)C1CCCCN1` (racemic) [Enpiroline, reference compound], in data set [1], the mean half-life was 140 h. Also, the half-inhibitory concentration (IC50) in the data set with P. falciparum 3D7 was 21.6 ± 1.43 nM.

`OC(c1cc(C(F)(F)F)nc2c(C(F)(F)F)cccc12)C1CCCCN1` (racemic) [Mefloquine, mefloquine]: in data set [1], the “human t1/2” value is recorded as 2-4 weeks. In the case of `C[C@@H]1CC[C@H]2[C@@H](C)C(=O)O[C@@H]3O[C@@]4(C)CC[C@@H]1[C@]32OO4` [Artemisinin], the “human t1/2” value in data set [1] is 1 h.

For the molecule `c1ccc2c(c1)cc1ccc3cccc4ccc2c1c34` [Benzo-a-pyrene, benzo-a-pyrene, reference compound], in the data set with CHO-K1 cells, the “BI (binucleated cells)” value came out at 475, the “MNC1 (micronucleated cell rate)” value was 28 ‰, the “MNC2 (micronucleated cell rate)” value is recorded as 25 ‰ and the “MNC-M (mean of micronucleated cell rates)” value was 26.5 ± 2.12 ‰. The “MONO (mononucleated cells)” value with CHO-K1 cells is given as 25. Take `O[C@@H](CNCCCN1CCN(C(c2ccccc2)c2ccccc2)CC1)c1cc(-c2ccc(C(F)(F)F)cc2)nc(C(F)(F)F)c1` [Compound 1n, (R)-2-((3-(4-benzhydrylpiperazin-1-yl)propyl)amino)-1-(2-(trifluoromethyl)-6-(4-(trifluoromethyl)phenyl)pyridin-4-yl)ethanol]: the half-inhibitory concentration (IC50) with P. falciparum 3D7 is under 50 nM; in the data set with Plasmodium falciparum W2, 86.9 nM. Take `O[C@H](CN[C@H](COCC1CC1)Cc1ccccc1)c1ccc(-c2ccc(C(F)(F)F)cc2)nc1C(F)(F)F` [Compound 30u, (S)-2-(((S)-1-(cyclopropylmethoxy)-3-phenylpropan-2-yl)amino)-1-(2-(trifluoromethyl)-6-(4-(trifluoromethyl)phenyl)pyridin-3-yl)ethan-1-ol]: the IC50 in the data set with P. falciparum 3D7 was 165 ± 21.9 nM. Still for that read-out and setting: for `O[C@@H](CN[C@H](COCC1CC1)Cc1ccccc1)c1ccc(-c2ccc(C(F)(F)F)cc2)nc1C(F)(F)F` [Compound 30v, (R)-2-(((S)-1-(cyclopropylmethoxy)-3-phenylpropan-2-yl)amino)-1-(2-(trifluoromethyl)-6-(4-(trifluoromethyl)phenyl)pyridin-3-yl)ethan-1-ol] the value was 896 nM. `OC(c1cc(C(F)(F)F)nc2c(C(F)(F)F)cccc12)C1CCCCN1` (centres unmarked) [MQ, Mefloquine, reference compound]: the IC50 in the data set on P. falciparum 3D7 is 32.3 ± 3.2 nM; in data set [2] it was 79.7 ± 8.5 nM; in the data set on Plasmodium falciparum W2, 31.8 ± 1 nM. For the molecule `CCCCN(CCCC)CC(O)c1cc(Cl)cc2c1-c1ccc(Cl)cc1/C2=C/c1ccc(Cl)cc1` (centres unmarked) [lumefantrine], the “human t1/2” value in data set [1] is 72 to 96 h.

(Values after US11220482B2, “Aminopyridinemethanol compounds and their use” (UNIVERSITE AMIENS PICARDIE JULES VERNE, priority 2017, dated 2022).)
